Source: paper PMC6340402 (Chemical Science, 2018)

Test system: HeLa cells
Assay: Cellular uptake in HeLa cells by confocal laser scanning microscopy
Assay type: cell-based
Settings: 30 minutes, 37 °C, serum-containing medium, Fig. 3

cellular uptake (CLSM, FITC fluorescence) (all concentrations (5, 10, 15 and 20 μM)): taken up at all concentrations
mechanism of uptake at the higher concentrations (CLSM) (higher concentrations): strong cytosolic uptake
Substance: FITC-Ahx-Arg-Arg-Arg-Arg-tetrazine-BCN-Arg-Arg-Arg-Arg-NH2 [R4-b-R4]
